Results: patent US11013690B2, “Esterification/saponification-based method for liposomal encapsulation of hydrophilic glucuronides” (priority 2016, dated 2021)

What was measured:
MDA-MB-468 tumors = assay: In-vivo anti-tumor activity, MDA-MB-468 subcutaneous tumors; parameters: species or system NOD/SCID mice; conditions: i.v. weekly x4, free 9AC 2 mg/kg, free 9AC-G 10 mg/kg; for mice survival: 9AC-G liposomes 10 mg/kg
Source text: FIG. 41 illustrates the in-vivo anti-tumor activity of liposomal 9AC-G. NOD/SCID mice were inoculated subcutaneously with 10^7 MDA-MB-468 cells. When tumors reached 75 to 100 mm^3 the treatment started at one injection per week for a total of 4 treatments. Figure represents the tumor volume evolution. n=7, Error bars: SD. Differences in tumor sizes between groups were examined for statistical significance using one-way ANOVA followed by Dunnettt's multiple comparisons. Stars indicate significance; n.s=non-significant and p<0.0001 (***)
FIG. 42 illustrates the mice survival after treatment with 9AC, 9AC-G or 9AC-G liposomes. n=7, Error bars, SD
FIG. 44 illustrates the tumor growth of MDA-MB-468 human breast cancer cells (10^7 cells in 100 μL PBS) injected subcutaneously in twelve to sixteen-week old female NOD/SCID immunodeficient mice. When tumors reached sizes from 75 mm^3 to 100 mm^3, groups of 7 mice were treated at weekly intervals for four times with intravenous injections of 9AC-G (10 mg/kg) or doxorubicin liposomes (Doxisome®, 1 mg/kg). n=7, Error bars, SD. Differences in tumor sizes between groups were examined for statistical significance using one-way ANOVA followed by Dunnettt's multiple comparisons. Stars indicate significance; p<0.001 (**) and p<0.0001 (***)
Next, in an in-vive model of breast cancer in NOD/SCID mice, 10^7 MDA-MD468 cells were inoculated subcutaneously per mouse. The treatment was started when the tumors reached an average size of 75 to 100 mm^3. Mice were intravenously injected with 9AC-G liposomes at 10 mg/kg, free parental 9AC (2 mg/kg), or free 9AC-G (10 mg/kg). […] Appreciably, low toxicity was observed and the tumors were undetectable when treated with 9AC-G liposomes after 4 treatments for 6 over 7 mice, as shown in FIG. 41. […] We observed that the amount of activated parental drug 9AC was over 30 folds higher in the tumor than in the blood 24 hours after injection of 9AC-G liposomes (FIG. 43). This phenomenon is likely due to the enhanced permeability and retention effect (EPR) by which nanoparticles accumulate and are retained in tumor through leaky blood tumor vasculature.

[1] = Pharmacokinetics of free vs liposomal 9AC-G in mice; format: in vivo, NOD/SCID mice; conditions: 25 mg/kg intravenously, 9AC-G in serum by HPLC
Method: FIG. 39 illustrates the pharmacokinetics in mice of free 9AC-G compared to liposomal 9AC-G. A dose of 25 mg/kg of either free 9AC-G or liposomal 9AC-G was injected intravenously by the tail of NOD/SCID mice. Blood samples were collected at different times and the concentration of 9AC-G was determined by HPLC. n=3, Error bars, SD.
This example relates to a test of whether the liposomal formulation of 9AC-G could display prolonged pharmacokinetics when compared to free 9AC-G. Free and liposomal 9AC-G were delivered intravenously at 25 mg/kg to 12 to 16 weeks old female mice. The total serum concentrations of 9AC-G were monitored by collecting blood samples in which the plasma was isolated from the red blood cells by centrifugation. The serum proteins were precipitated in acetonitrile:methanol:0.2 M trichloroacetic acid (2:2:1, vol:vol mixture). Samples were centrifuged to eliminate precipitated proteins and diluted in buffer containing 1% triton X-100 to lyse the liposomes and analyze 9AC-G quantities by HPLC.

human beta-glucuronidase = biological target: T1, human beta-glucuronidase (Homo sapiens, UniProt P08236); assay: Regeneration of parental drug by beta-glucuronidase at pH 4.5; format: biochemical; conditions: pH 4.5 to mimic lysosomes
T1 sequence (P08236 23-651): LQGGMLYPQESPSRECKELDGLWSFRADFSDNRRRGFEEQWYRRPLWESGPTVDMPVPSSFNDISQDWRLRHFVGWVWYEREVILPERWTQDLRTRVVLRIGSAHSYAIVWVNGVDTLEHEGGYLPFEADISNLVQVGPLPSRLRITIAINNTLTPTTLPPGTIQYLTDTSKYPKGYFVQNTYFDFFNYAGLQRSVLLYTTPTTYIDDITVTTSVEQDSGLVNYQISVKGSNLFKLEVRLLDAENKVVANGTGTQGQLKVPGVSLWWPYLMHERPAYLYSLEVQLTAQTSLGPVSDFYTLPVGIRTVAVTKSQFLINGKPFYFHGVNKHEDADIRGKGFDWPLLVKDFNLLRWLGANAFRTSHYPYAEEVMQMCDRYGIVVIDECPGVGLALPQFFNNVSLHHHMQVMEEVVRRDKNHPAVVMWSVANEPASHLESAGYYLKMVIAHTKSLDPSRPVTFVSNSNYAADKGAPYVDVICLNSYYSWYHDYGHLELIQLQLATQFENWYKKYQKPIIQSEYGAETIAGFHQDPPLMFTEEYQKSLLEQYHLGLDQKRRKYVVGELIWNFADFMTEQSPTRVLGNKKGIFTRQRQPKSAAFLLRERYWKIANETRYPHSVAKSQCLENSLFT
Method: FIG. 28 illustrates the reversibility of the conjugation of the glucuronide residue to a parental compound. Here, 9AC was analyzed by HPLC before (1.) and after glucuronide conjugation (2.). […] 9AC-G incubated with human enzyme beta-glucuronidase at pH 4.5 to mimic the lysosomal conditions, could regenerate the original parental drug 9AC (5.). (RFU=relative fluorescent units)
In real conditions, it is extrapolated that liposomal glucuronides can be uptake by cells and that the liposomes can release the glucuronide inside lysosomes after degradation as illustrated in FIG. 29. Illustrations of compound regeneration are provided using 2 examples: 9AC-G (linked by self-immolative chemical linker that is removed upon enzyme hydrolysis, FIG. 30) and fluorescein (directly linked to glucuronide residues, FIG. 31). Effective amounts of 9AC were found in the medium of HCC36 and MDA-MB468 human cancer cells after addition of 9AC-G liposomes. On the other hand, when no cells were present, no 9AC was found, meaning that the regeneration of 9AC was dependent on the cells (FIG. 32). […] To further illustrate the parental compound regeneration ability, we incubated HCC36 cells engineered with LDL-R/anti PEG receptors with liposomal fluorescein-di-G (non-fluorescent). At early time, the liposomes (red) were taken up by the cells and started to colocalize with the lysosomes (magenta). […]

[2] = tested on: HCC36 human hepatocellular carcinoma cells; assay: Effect of human serum albumin on toxicity to HCC36 cells; format: cell-based; conditions: HCC36, human serum albumin 40 mg/mL, 24 hours, 3H-thymidine incorporation
Method: FIG. 35 illustrates the neutralizing effect of human serum albumin on free 9AC-G. Human hepatocellular carcinoma cells (HCC36) were exposed to free 9AC-G with or without human serum albumin (40 mg/mL) for 24 hours. Cell proliferation was observed by ^3H-thymidine incorporation assay. Human serum albumin inhibits the potency of free 9AC-G that is not loaded into liposomes. n=3, Error bars, SD.
FIG. 36 illustrates the inability of human serum albumin to neutralize 9AC-G after liposomal loading. Human hepatocellular carcinoma cells (HCC36) were exposed to liposomal 9AC-G with or without human serum albumin (40 mg/mL) for 24 hours. Cell proliferation was observed by ^3H-thymidine incorporation assay.
Anticancer activity of liposomes loaded with glucuronide-mE to encapsulate glucuronide can be assessed in-vitro or in-vivo. In an in-vitro assay, cancer cell lines can be seeded in wells or plates and various concentrations of liposomal glucuronide can be applied to the cells for a period of time, such as 24 hours, and cell killing can be assayed. Tritiated thymidine can be used to assay cell proliferation. […] Liposomal doxorubicin and liposomal 9AC-G toxicities were assessed with 3 human colon cancer cells (LS174T, HT29, and HCT16), 3 human lung cancer cells (CL1-5, NCI-H2170, and SK-MES-1) and 1 human breast cancer cells (MDA-MB-468). […]

[3] = pH stability of 9AC-GmE (HPLC); format: physicochemical
Method: FIG. 6 illustrates the stability of 9-aminocamptothecin glucuronide methylester (9AC-GmE) at acidic pH. 9AC-GmE stability was monitored over time at 75° C., at pH 5. Quantification was done by HPLC at excitation and emission of 370 and 460 nm, respectively. (Abbreviations: 9AC, 9-aminocamptothecin; 9AC-G, 9-aminocamptothecin glucuronide; 9AC-GmE, methylester form of 9AC-G). n=3. Error bars, SD.
FIG. 7 illustrates the conversion of 9-aminocamptothecin glucuronide methylester (9AC-GmE) to 9-aminocamptothecin glucuronide (9AC-G) at basic pH. 9AC-GmE conversion to 9AC-G was monitored over time at 75° C., at pH 8.5. Quantification was done by HPLC at excitation and emission of 370 and 460 nm, respectively. n=3. Error bars, SD.
The behavior of 9AC-GmE was investigated at different pH and temperatures.

[4] = Octanol-to-water partitioning assay; format: physicochemical; conditions: 1-octanol / citric acid pH 5, room temperature
Method: FIG. 4 illustrates the octanol to water distribution of glucuronides and glucuronide-mE. Glucuronides and glucuronide-mE were incubated overnight in immiscible aqueous and organic phases (citric acid pH 5 and 1-octanol) under gentle shaking at room temperature. Samples from each phase were analyzed to characterize the distribution of the compounds. n=3-5
FIG. 5 illustrates the Log P of glucuronides and glucuronide-mE compounds in each phase of 1-octanol and citric acid pH 5 following the formula: log Poctanol/water=log ([solute]octanol/[solute]water). n=3-5. Error bars, SD
9-aminocamptothecin glucuronide (9AC-G), 5,6-dihydro-4H-benzo[de]quinoline-camptothecin-β-D-glucuronide (BQC-G) and 4-methylumbelliferyl-β-D-glucuronide (4MU-G) can be incubated in methanol in the presence of a strong acid (sulfuric acid) as a catalyzer (FIG. 2).
Distribution of the different compounds were measured by dilution in a 1:1 volume of octanol and 100 mM citric acid buffer at pH 5 (FIG. 4). The solutions were gently stirred for 24 hours at room temperature, spun down at 2,500×g and glucuronides or glucuronide-mE in each phase was quantified by HPLC and the partition coefficients were calculated as log Poctanol/water=log ([solute]octanol/[solute]water) ([…]).

9-aminocamptothecin glucuronide [9AC-G]
mice survival (MDA-MB-468 tumors): not | effect on tumor growth (MDA-MB-468 tumors): little effect on the tumor growth | initial half-life [1]: 9.3 min | terminal half-life [1]: 38.6 min | conversion to parental drug by beta-glucuronidase (human beta-glucuronidase): completely converted to 9AC | effect of human serum albumin on toxicity [2]: toxicity is suppressed

9-aminocamptothecin glucuronide methylester [9AC-GmE]
stability of methylester group at basic pH (saponification to 9AC-G) ([3]; basic pH (8.5), 75° C.): easily is hydrolyzed | stability at acidic pH ([3]; pH 5, 75° C.): very stable | partition versus corresponding glucuronide [4]: increased partition into an organic phase

COC(=O)C1OC(Oc2ccc3c(C)cc(=O)oc3c2)C(O)C(O)C1O (stereo not drawn) [4MU-GmE]
partition versus corresponding glucuronide [4]: increased partition into an organic phase

CC[C@@]1(O)C(=O)OCc2c1cc1n(c2=O)Cc2cc3c(N)cccc3nc2-1 [9AC, 9-aminocamptothecin, reference compound]
mice survival (MDA-MB-468 tumors): not | effect on tumor growth (MDA-MB-468 tumors): little effect on the tumor growth
